# Assay results from patent US10597388B2, “Pyridazinone herbicides” (FMC CORPORATION, priority 2014, dated 2020).
# Tests used:
# Experiment in all cases: Test C greenhouse herbicide test, pre- and postemergence
# Assay type in all cases: in vivo
# [1] = tested on: oilseed rape (Brassica napus)
# Outline: (§1)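 Seeds sown in loam–sand blend treated preemergence; plants in peat-based medium sprayed postemergence at 2–18 cm (1- to 4-leaf stage); chemicals in non-phytotoxic solvent with surfactant. Greenhouse 13–15 d, then visual rating versus controls on 0–100 scale (0 no effect, 100 complete control).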
# soybean (Glycine max) = tested on: soybean (Glycine max)
# Outline: as §1
# [2] = tested on: nutsedge, yellow (yellow nutsedge, Cyperus esculentus)
# Outline: as §1
# [3] = tested on: foxtail, giant (giant foxtail, Setaria faberii)
# Outline: as §1
# [4] = tested on: crabgrass, large (large crabgrass, Digitaria sanguinalis)
# Outline: as §1
# corn (Zea mays) = tested on: corn (Zea mays)
# Outline: as §1
# [5] = tested on: ryegrass, Italian (Italian ryegrass, Lolium multiflorum)
# Outline: as §1
# [6] = tested on: lambsquarters (Chenopodium album)
# Outline: as §1
# [7] = tested on: blackgrass (Alopecurus myosuroides)
# Outline: as §1
# [8] = tested on: velvetleaf (Abutilon theophrasti)
# Outline: as §1
# [9] = tested on: barnyardgrass (Echinochloa crus-galli)
# Outline: as §1
# [10] = tested on: pigweed (Amaranthus retroflexus)
# Outline: as §1
# [11] = tested on: wheat (winter wheat, Triticum aestivum)
# Outline: as §1
# [12] = tested on: ragweed (common ragweed, Ambrosia elatior)
# Outline: as §1
# [13] = tested on: galium (catchweed bedstraw, Galium aparine)
# Outline: as §1
# [14] = Postemergence, 31 g ai/ha, 0 to 100 scale (0 no effect, 100 complete control)
# [15] = Postemergence, 125 g ai/ha, scale 0 to 100, 0 is no effect, 100 is complete control
# [16] = Postemergence, 250 g ai/ha, scale 0 to 100, 0 no effect, 100 complete control, 13 to 15 d
# [17] = Preemergence, 31 g ai/ha, scale 0 to 100, 0 is no effect, 100 is complete control
# [18] = Preemergence, 62 g ai/ha, scale 0 to 100, 0 is no effect, 100 is complete control
# [19] = Preemergence, 125 g ai/ha, scale 0 to 100, 0 is no effect, 100 is complete control
# [20] = Preemergence, 250 g ai/ha, scale 0 to 100, 0 no effect, 100 complete control
# [21] = postemergence, 62 g ai/ha, scale 0 to 100, 0 no effect, 100 complete control
smiles,measurement,setting,value
"Cc1nn(C)c(=O)c(-c2cccc3ccccc23)c1O [Compound 11, 5-hydroxy-2,6-dimethyl-4-(1-naphthalenyl)-3(2H)-pyridazinone]",Oilseed Rape plant response rating,[1]; [14],0
same,"Plant response rating, Oilseed Rape",[1]; [15],0
same,"Plant response rating, Oilseed Rape",[1]; [16],0
same,"Plant response rating, Oilseed Rape",[1]; [17],0
same,"Plant response rating, Oilseed Rape",[1]; [18],0
same,"Plant response rating, Oilseed Rape",[1]; [19],0
same,Oilseed Rape plant response rating,[1]; [20],0
same,Oilseed Rape plant response rating,[1]; [21],0
same,Soybean plant response rating,soybean (Glycine max); [14],0
same,"Plant response rating, Soybean",soybean (Glycine max); [15],0
same,"Plant response rating, Soybean",soybean (Glycine max); [16],0
same,"Plant response rating, Soybean",soybean (Glycine max); [18],0
same,"Plant response rating, Soybean",soybean (Glycine max); [19],0
same,Soybean plant response rating,soybean (Glycine max); [20],0
same,Soybean plant response rating,soybean (Glycine max); [21],0
same,"Nutsedge, Yellow plant response rating",[2]; [14],5
same,"Plant response rating, Nutsedge, Yellow",[2]; [15],30
same,"Plant response rating, Nutsedge, Yellow",[2]; [16],45
same,"Plant response rating, Nutsedge, Yellow",[2]; [17],0
same,"Plant response rating, Nutsedge, Yellow",[2]; [18],5
same,"Plant response rating, Nutsedge, Yellow",[2]; [19],10
same,"Nutsedge, Yellow plant response rating",[2]; [20],30
same,"Nutsedge, Yellow plant response rating",[2]; [21],15
same,"Foxtail, Giant plant response rating",[3]; [14],5
same,"Plant response rating, Foxtail, Giant",[3]; [15],10
same,"Plant response rating, Foxtail, Giant",[3]; [16],30
same,"Plant response rating, Foxtail, Giant",[3]; [17],0
same,"Plant response rating, Foxtail, Giant",[3]; [18],35
same,"Plant response rating, Foxtail, Giant",[3]; [19],50
same,"Foxtail, Giant plant response rating",[3]; [20],90
same,"Foxtail, Giant plant response rating",[3]; [21],5
same,"Crabgrass, Large plant response rating",[4]; [14],0
same,"Plant response rating, Crabgrass, Large",[4]; [15],0
same,"Plant response rating, Crabgrass, Large",[4]; [16],10
same,"Plant response rating, Crabgrass, Large",[4]; [17],0
same,"Plant response rating, Crabgrass, Large",[4]; [18],0
same,"Plant response rating, Crabgrass, Large",[4]; [19],40
same,"Crabgrass, Large plant response rating",[4]; [20],40
same,"Crabgrass, Large plant response rating",[4]; [21],0
same,Corn plant response rating,corn (Zea mays); [14],0
same,"Plant response rating, Corn",corn (Zea mays); [15],0
same,"Plant response rating, Corn",corn (Zea mays); [16],0
same,"Plant response rating, Corn",corn (Zea mays); [17],0
same,"Plant response rating, Corn",corn (Zea mays); [18],0
same,"Plant response rating, Corn",corn (Zea mays); [19],0
same,Corn plant response rating,corn (Zea mays); [20],0
same,Corn plant response rating,corn (Zea mays); [21],0
same,"Ryegrass, Italian plant response rating",[5]; [14],70
same,"Plant response rating, Ryegrass, Italian",[5]; [15],90
same,"Plant response rating, Ryegrass, Italian",[5]; [16],90
same,"Plant response rating, Ryegrass, Italian",[5]; [17],90
same,"Plant response rating, Ryegrass, Italian",[5]; [18],95
same,"Plant response rating, Ryegrass, Italian",[5]; [19],100
same,"Ryegrass, Italian plant response rating",[5]; [20],100
same,"Ryegrass, Italian plant response rating",[5]; [21],70
same,Lambsquarters plant response rating,[6]; [14],80
same,"Plant response rating, Lambsquarters",[6]; [15],90
same,"Plant response rating, Lambsquarters",[6]; [16],90
same,"Plant response rating, Lambsquarters",[6]; [17],70
same,"Plant response rating, Lambsquarters",[6]; [18],100
same,"Plant response rating, Lambsquarters",[6]; [19],100
same,Lambsquarters plant response rating,[6]; [20],100
same,Lambsquarters plant response rating,[6]; [21],90
same,Blackgrass plant response rating,[7]; [14],5
same,"Plant response rating, Blackgrass",[7]; [15],30
same,"Plant response rating, Blackgrass",[7]; [16],75
same,"Plant response rating, Blackgrass",[7]; [17],35
same,"Plant response rating, Blackgrass",[7]; [18],40
same,"Plant response rating, Blackgrass",[7]; [19],50
same,Blackgrass plant response rating,[7]; [20],85
same,Blackgrass plant response rating,[7]; [21],15
same,Velvetleaf plant response rating,[8]; [14],0
same,"Plant response rating, Velvetleaf",[8]; [15],45
same,"Plant response rating, Velvetleaf",[8]; [16],80
same,"Plant response rating, Velvetleaf",[8]; [18],10
same,"Plant response rating, Velvetleaf",[8]; [19],90
same,Velvetleaf plant response rating,[8]; [20],90
same,Velvetleaf plant response rating,[8]; [21],5
same,Barnyardgrass plant response rating,[9]; [14],0
same,"Plant response rating, Barnyardgrass",[9]; [15],5
same,"Plant response rating, Barnyardgrass",[9]; [16],15
same,"Plant response rating, Barnyardgrass",[9]; [17],0
same,"Plant response rating, Barnyardgrass",[9]; [18],0
same,"Plant response rating, Barnyardgrass",[9]; [19],10
same,Barnyardgrass plant response rating,[9]; [20],80
same,Barnyardgrass plant response rating,[9]; [21],0
same,Pigweed plant response rating,[10]; [14],50
same,"Plant response rating, Pigweed",[10]; [15],90
same,"Plant response rating, Pigweed",[10]; [16],95
same,"Plant response rating, Pigweed",[10]; [17],0
same,"Plant response rating, Pigweed",[10]; [18],100
same,"Plant response rating, Pigweed",[10]; [19],100
same,Pigweed plant response rating,[10]; [20],100
same,Pigweed plant response rating,[10]; [21],90
same,Wheat plant response rating,[11]; [14],0
same,"Plant response rating, Wheat",[11]; [15],5
same,"Plant response rating, Wheat",[11]; [16],5
same,"Plant response rating, Wheat",[11]; [18],0
same,"Plant response rating, Wheat",[11]; [19],0
same,Wheat plant response rating,[11]; [20],10
same,Wheat plant response rating,[11]; [21],0
same,Ragweed plant response rating,[12]; [14],0
same,"Plant response rating, Ragweed",[12]; [15],95
same,"Plant response rating, Ragweed",[12]; [16],95
same,"Plant response rating, Ragweed",[12]; [17],15
same,"Plant response rating, Ragweed",[12]; [18],50
same,"Plant response rating, Ragweed",[12]; [19],80
same,Ragweed plant response rating,[12]; [20],90
same,Ragweed plant response rating,[12]; [21],40
same,Galium plant response rating,[13]; [14],75
same,"Plant response rating, Galium",[13]; [15],90
same,"Plant response rating, Galium",[13]; [16],90
same,"Plant response rating, Galium",[13]; [17],85
same,"Plant response rating, Galium",[13]; [18],90
same,"Plant response rating, Galium",[13]; [19],90
same,Galium plant response rating,[13]; [20],95
same,Galium plant response rating,[13]; [21],90
